Measurements published in PubChem BioAssay AID200 (DTP/NCI, 2004).
Where “and” joins values, the source holds several entries; their conditions need not be identical. Equal entries are not always repeated. Toxic doses and inconclusive results are not listed.

System: B6C3F1 mice, B16 melanoma ip, median survival T/C
Experiment: NCI In Vivo Anticancer Drug Screen. Data for tumor model B16 Melanoma (intraperitoneal) in B6C3F1 mice
Details: endpoint: median survival time, higher = longer survival
Summary of the method: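 Tumor-bearing mice received test compound; a separate group got vehicle only. Survival was then compared, with results reported as treated over control.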

[1] = dose: 100.0 mg/kg/injection, schedule: Q01DX009 (ip), vehicle: saline with Tween-80
[2] = dose: 200.0 mg/kg/injection, schedule: Q01DX009 (ip), vehicle: saline with Tween-80
[3] = dose: 50.0 mg/kg/injection, schedule: Q01DX009 (ip), vehicle: saline with Tween-80
[4] = dose: 25.0 mg/kg/injection, schedule: Q01DX009 (ip), vehicle: saline with Tween-80
[5] = dose: 6.25 mg/kg/injection, schedule: Q01DX009 (ip), vehicle: saline with Tween-80
[6] = dose: 12.5 mg/kg/injection, schedule: Q01DX009 (ip), vehicle: saline with Tween-80
[7] = dose: 400.0 mg/kg/injection, schedule: Q01DX009 (ip), vehicle: saline
[8] = dose: 100.0 mg/kg/injection, schedule: Q01DX009 (ip), vehicle: saline
[9] = dose: 200.0 mg/kg/injection, schedule: Q01DX009 (ip), vehicle: saline

`O=C1C=CC(=O)N1c1ccc(Cl)cc1` was tested, and the T/C (dose: 0.31 mg/kg/injection, schedule: Q01DX009 (ip), vehicle: Klucel (hydroxypropylcellulose) (HPC)) was 100 % of control and 102 % of control, the T/C (dose: 0.63 mg/kg/injection, schedule: Q01DX009 (ip), vehicle: Klucel (hydroxypropylcellulose) (HPC)) was 111 % of control and 86 % of control and the T/C (dose: 1.25 mg/kg/injection, schedule: Q01DX009 (ip), vehicle: Klucel (hydroxypropylcellulose) (HPC)) was 96 % of control and 100 % of control. For the same molecule, the T/C (dose: 2.5 mg/kg/injection, schedule: Q01DX009 (ip), vehicle: Klucel (hydroxypropylcellulose) (HPC)) was 100 % of control.
`O=C1C(Cl)=C(Cl)C(=O)C2=C1C1c3ccccc3C2c2ccccc21` was tested, and the T/C [1] was 94 % of control and the T/C [2] was 86 % of control.
`COC1=Nc2ccccc2N2CCN=C12` was tested, and the T/C (dose: 6.25 mg/kg/injection, schedule: Q04DX003 (ip), vehicle: saline with Tween-80) was 103 % of control, the T/C (dose: 12.5 mg/kg/injection, schedule: Q04DX003 (ip), vehicle: saline with Tween-80) was 106 % of control and the T/C (dose: 25.0 mg/kg/injection, schedule: Q04DX003 (ip), vehicle: saline with Tween-80) was 96 % of control. For the same molecule, the T/C (dose: 50.0 mg/kg/injection, schedule: Q04DX003 (ip), vehicle: saline with Tween-80) was 96 % of control.
`C=C1C(=O)OC2/C=C(\CO)CC/C=C(\CO)CC(OC(=O)C(C)C)C12` (stereo not given) was tested, and the T/C (dose: 3.75 mg/kg/injection, schedule: Q01DX009 (ip), vehicle: Klucel (hydroxypropylcellulose) (HPC)) was 103 % of control.
`c1ccc(-c2cc3cc4ccccc4cn3c2)cc1` was tested, and the T/C [3] was 110 % of control, the T/C [1] was 118 % of control and the T/C [2] was 116 % of control. The T/C (dose: 400.0 mg/kg/injection, schedule: Q01DX009 (ip), vehicle: saline with Tween-80) was 105 % of control and the T/C (dose: 800.0 mg/kg/injection, schedule: Q01DX009 (ip), vehicle: saline with Tween-80) was 108 % of control.
For `C=C(C)C(=O)OCC12CCC(C)=CC1OC1C(O)C(OC(=O)CCl)C2(C)C12CO2` (stereo not given), the T/C (dose: 0.5 mg/kg/injection, schedule: Q01DX009 (ip), vehicle: water) was 163 % of control, the T/C (dose: 1.0 mg/kg/injection, schedule: Q01DX009 (ip), vehicle: water) was 163 % of control and the T/C (dose: 2.0 mg/kg/injection, schedule: Q01DX009 (ip), vehicle: water) was 159 % of control.
For `Nc1nc(N)c2cc(S(=O)(=O)c3ccccc3)ccc2n1`, the T/C [4] was 88 % of control, the T/C [3] was 103 % of control and 105 % of control and the T/C [2] was 153 % of control and 171 % of control.
`CNCCN=c1ccc2c3c1c(O)c1c(O)ccc(=O)c1c3[nH]n2CCNCCO` was tested, and the T/C (dose: 0.38 mg/kg/injection, schedule: Q01DX009 (ip), vehicle: water) was 273 % of control, the T/C (dose: 0.75 mg/kg/injection, schedule: Q01DX009 (ip), vehicle: water) was 357 % of control and the T/C (dose: 1.5 mg/kg/injection, schedule: Q01DX009 (ip), vehicle: water) was 357 % of control. The T/C (dose: 3.0 mg/kg/injection, schedule: Q01DX009 (ip), vehicle: water) was 309 % of control and the T/C (dose: 3.12 mg/kg/injection, schedule: Q01DX009 (ip), vehicle: water) was 169 % of control.
With `Nc1nc2ccc(NCc3ccc(C(=O)NC(CCC(=O)O)C(=O)O)cc3)cc2c(=O)[nH]1` (stereo not given) the T/C [5] was 88 % of control, the T/C [6] was 91 % of control and the T/C [4] was 97 % of control. For the same molecule, the T/C [3] was 91 % of control and the T/C [1] was 93 % of control.
`Sc1ccccc1-n1c(-c2ccccc2)ccc1-c1ccccc1` was tested, and the T/C [3] was 104 % of control and the T/C [1] was 87 % of control.
With `NCc1ccc(O)c(O)c1` the T/C (dose: 28.13 mg/kg/injection, schedule: Q03HX024 (ip), vehicle: saline) was 98 % of control, the T/C (dose: 56.25 mg/kg/injection, schedule: Q03HX024 (ip), vehicle: saline) was 107 % of control and the T/C (dose: 75.0 mg/kg/injection, schedule: Q01DX009 (ip), vehicle: saline) was 110 % of control. For the same molecule, the T/C (dose: 225.0 mg/kg/injection, schedule: Q03HX024 (ip), vehicle: saline) was 124 % of control, the T/C (dose: 300.0 mg/kg/injection, schedule: Q01DX009 (ip), vehicle: saline) was 114 % of control and 117 % of control and the T/C [7] was 117 % of control and 118 % of control. The T/C (dose: 500.0 mg/kg/injection, schedule: Q01DX009 (ip), vehicle: saline) was 117 % of control and 91 % of control.
In the case of `CNc1c(NC)n(C)c(=O)n(C)c1=O`, the T/C [8] is reported as 92 % of control, the T/C [9] is reported as 100 % of control and the T/C [7] is reported as 96 % of control.
With `Nc1ccc(S(=O)(=O)N/N=C/c2ccccc2[N+](=O)[O-])cc1` the T/C (dose: 3.12 mg/kg/injection, schedule: Q01DX009 (ip), vehicle: saline with Tween-80) was 95 % of control, the T/C [5] was 95 % of control and the T/C [6] was 96 % of control. The T/C [4] was 101 % of control and the T/C [3] was 104 % of control.
With `NC1C(O)C(O)C(Nc2ncnc3nc[nH]c23)OC1C(O)CO` (stereo not given) the T/C (dose: 10.0 mg/kg/injection, schedule: Q01DX009 (ip), vehicle: saline) was 99 % of control, the T/C (dose: 20.0 mg/kg/injection, schedule: Q01DX009 (ip), vehicle: saline) was 96 % of control and the T/C (dose: 40.0 mg/kg/injection, schedule: Q01DX009 (ip), vehicle: saline) was 94 % of control. The T/C (dose: 80.0 mg/kg/injection, schedule: Q01DX009 (ip), vehicle: saline) was 106 % of control.
In the case of `O=C1NC(=O)C2C3C=CC(C12)C1C2C(=O)NC(=O)C2C31` (stereo not given), the T/C [6] is reported as 108 % of control and 100 % of control, the T/C (dose: 19.7 mg/kg/injection, schedule: Q01DX009 (ip), vehicle: water) is reported as 107 % of control and the T/C [4] is reported as 114 % of control and 104 % of control. For the same molecule, the T/C (dose: 32.9 mg/kg/injection, schedule: Q01DX009 (ip), vehicle: water) was 98 % of control, the T/C [3] was 117 % of control and the T/C (dose: 54.8 mg/kg/injection, schedule: Q01DX009 (ip), vehicle: water) was 117 % of control. The T/C [1] was 120 % of control and 124 % of control.
For `O=c1ccn(C2OC(CO)C(O)C2O)c(=O)[nH]1` (stereo not given), the T/C (dose: 12.5 mg/kg/injection, schedule: Q01DX009 (ip), vehicle: Klucel (hydroxypropylcellulose) (HPC)) was 97 % of control, the T/C (dose: 25.0 mg/kg/injection, schedule: Q01DX009 (ip), vehicle: Klucel (hydroxypropylcellulose) (HPC)) was 99 % of control and the T/C (dose: 50.0 mg/kg/injection, schedule: Q01DX009 (ip), vehicle: Klucel (hydroxypropylcellulose) (HPC)) was 104 % of control. The T/C (dose: 100.0 mg/kg/injection, schedule: Q01DX009 (ip), vehicle: Klucel (hydroxypropylcellulose) (HPC)) was 95 % of control, the T/C (dose: 200.0 mg/kg/injection, schedule: Q01DX009 (ip), vehicle: Klucel (hydroxypropylcellulose) (HPC)) was 99 % of control and the T/C (dose: 400.0 mg/kg/injection, schedule: Q01DX009 (ip), vehicle: Klucel (hydroxypropylcellulose) (HPC)) was 102 % of control. The T/C (dose: 800.0 mg/kg/injection, schedule: Q01DX009 (ip), vehicle: Klucel (hydroxypropylcellulose) (HPC)) was 102 % of control.
In the case of `C=Cc1cc(OC)c2c(c1)c(=O)oc1c2cc(OC)c2c(O)ccc(C3OC(C)C(O)C(C)(O)C3O)c21` (stereo not given), the T/C (dose: 2.5 mg/kg/injection, schedule: Q01DX009 (ip), vehicle: DMSO) is reported as 120 % of control, the T/C (dose: 5.0 mg/kg/injection, schedule: Q01DX009 (ip), vehicle: DMSO) is reported as 124 % of control and 103 % of control and the T/C (dose: 20.0 mg/kg/injection, schedule: Q01DX009 (ip), vehicle: DMSO) is reported as 158 % of control. The T/C (dose: 40.0 mg/kg/injection, schedule: Q01DX009 (ip), vehicle: DMSO) was 169 % of control and 196 % of control and the T/C (dose: 80.0 mg/kg/injection, schedule: Q01DX009 (ip), vehicle: DMSO) was 207 % of control.
For `CN(C)C=O`, the T/C (dose: 25.0 mg/kg/injection, schedule: Q01DX009 (ip), vehicle: saline) was 99 % of control, the T/C (dose: 50.0 mg/kg/injection, schedule: Q01DX009 (ip), vehicle: saline) was 112 % of control and 100 % of control and the T/C [8] was 88 % of control and 96 % of control. For the same molecule, the T/C [9] was 86 % of control and 93 % of control, the T/C [7] was 122 % of control and 98 % of control and the T/C (dose: 800.0 mg/kg/injection, schedule: Q01DX009 (ip), vehicle: saline) was 108 % of control and 122 % of control. The T/C (dose: 1600.0 mg/kg/injection, schedule: Q01DX009 (ip), vehicle: saline) was 116 % of control.
In the case of `COC1=C2C[C@@H](C)C[C@@H](OC)[C@@H](O)[C@H](C)/C=C(\C)[C@@H](OC(N)=O)[C@H](OC)/C=C\C=C(/C)C(=O)NC(=CC1=O)C2=O`, the T/C (dose: 0.12 mg/kg/injection, schedule: Q01DX009 (ip), vehicle: saline with Tween-80) is reported as 103 % of control and 106 % of control, the T/C (dose: 0.13 mg/kg/injection, schedule: Q01DX009 (ip), vehicle: saline with Tween-80) is reported as 105 % of control and the T/C (dose: 0.25 mg/kg/injection, schedule: Q01DX009 (ip), vehicle: saline with Tween-80) is reported as 108 % of control and 118 % of control. For the same molecule, the T/C (dose: 0.5 mg/kg/injection, schedule: Q01DX009 (ip), vehicle: saline with Tween-80) was 122 % of control and 102 % of control and 105 % of control, the T/C (dose: 1.0 mg/kg/injection, schedule: Q01DX009 (ip), vehicle: saline with Tween-80) was 109 % of control and 102 % of control and the T/C (dose: 2.0 mg/kg/injection, schedule: Q01DX009 (ip), vehicle: saline with Tween-80) was 123 % of control and 106 % of control.
